Laboratory results reported in PMC11531508 (Scientific Reports, 2024).

target: AChE (Electrophorus electricus) (Electrophorus electricus, UniProt O42275); assay: In vitro acetylcholinesterase inhibition assay; type: biochemical
Sequence (O42275 24-633): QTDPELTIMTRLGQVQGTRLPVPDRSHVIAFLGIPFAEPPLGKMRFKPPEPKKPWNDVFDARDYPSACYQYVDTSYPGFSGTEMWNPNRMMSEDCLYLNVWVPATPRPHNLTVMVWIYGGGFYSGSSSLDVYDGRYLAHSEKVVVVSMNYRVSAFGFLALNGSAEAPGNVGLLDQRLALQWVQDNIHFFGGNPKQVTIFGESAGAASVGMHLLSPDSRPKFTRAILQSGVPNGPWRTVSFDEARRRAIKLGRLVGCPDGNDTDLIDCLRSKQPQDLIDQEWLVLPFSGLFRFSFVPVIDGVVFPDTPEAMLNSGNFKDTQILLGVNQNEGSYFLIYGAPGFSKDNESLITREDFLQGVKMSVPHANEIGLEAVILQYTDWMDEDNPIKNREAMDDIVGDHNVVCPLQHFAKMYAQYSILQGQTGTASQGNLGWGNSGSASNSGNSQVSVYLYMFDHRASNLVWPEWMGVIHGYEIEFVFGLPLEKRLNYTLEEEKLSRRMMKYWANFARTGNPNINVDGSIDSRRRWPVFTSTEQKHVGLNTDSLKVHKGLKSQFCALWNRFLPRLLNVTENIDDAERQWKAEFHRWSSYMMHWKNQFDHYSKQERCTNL

Row | Compound | IC50
1 | O=c1cc(OCCCCOc2ccc(-c3nc4ccccc4s3)cc2)c2ccccc2o1 [Compound 3a, 4-(4-(4-(Benzo[d]thiazol-2-yl)phenoxy)butoxy)-2H-chromen-2-one] | 4.23 ± 0.11 µM
2 | COc1cc(-c2nc3ccccc3s2)ccc1OCCCCOc1cc(=O)oc2ccccc12 [Compound 3b, 4-(4-(4-(Benzo[d]thiazol-2-yl)-2-methoxyphenoxy)butoxy)-2H-chromen-2-one] | 16.5 ± 0.23 µM
3 | CCOc1cc(-c2nc3ccccc3s2)ccc1OCCCCOc1cc(=O)oc2ccccc12 [Compound 3c, 4-(4-(4-(Benzo[d]thiazol-2-yl)-2-ethoxyphenoxy)butoxy)-2H-chromen-2-one] | 15.8 ± 0.18 µM
4 | COc1cc(-c2nc3ccccc3s2)cc(OC)c1OCCCCOc1cc(=O)oc2ccccc12 [Compound 3d, 4-(4-(4-(Benzo[d]thiazol-2-yl)-2,6-dimethoxyphenoxy)butoxy)-2H-chromen-2-one] | 6.8 ± 0.1 µM
5 | COc1cc(OCCCCOc2cc(=O)oc3ccccc23)ccc1-c1nc2ccccc2s1 [Compound 3e, 4-(4-(4-(Benzo[d]thiazol-2-yl)-3-methoxyphenoxy)butoxy)-2H-chromen-2-one] | 18.7 ± 0.28 µM
6 | O=c1cc(OCCCCCOc2ccc(-c3nc4ccccc4s3)cc2)c2ccccc2o1 [Compound 3f, 4-((5-(4-(Benzo[d]thiazol-2-yl)phenoxy)pentyl)oxy)-2H-chromen-2-one] | 8.5 ± 0.18 µM
7 | COc1cc(-c2nc3ccccc3s2)ccc1OCCCCCOc1cc(=O)oc2ccccc12 [Compound 3g, 4-((5-(4-(Benzo[d]thiazol-2-yl)-2-methoxyphenoxy)pentyl)oxy)-2H-chromen-2-one] | 6.8 ± 0.13 µM
8 | CCOc1cc(-c2nc3ccccc3s2)ccc1OCCCCCOc1cc(=O)oc2ccccc12 [Compound 3h, 4-((5-(4-(Benzo[d]thiazol-2-yl)-2-ethoxyphenoxy)pentyl)oxy)-2H-chromen-2-one] | 6.5 ± 0.12 µM
9 | COc1cc(-c2nc3ccccc3s2)cc(OC)c1OCCCCCOc1cc(=O)oc2ccccc12 [Compound 3i, 4-((5-(4-(Benzo[d]thiazol-2-yl)-2,6-dimethoxyphenoxy)pentyl)oxy)-2H-chromen-2-one] | 2.7 ± 0.1 µM
10 | COc1cc(OCCCCCOc2cc(=O)oc3ccccc23)ccc1-c1nc2ccccc2s1 [Compound 3j, 4-((5-(4-(Benzo[d]thiazol-2-yl)-3-methoxyphenoxy)pentyl)oxy)-2H-chromen-2-one] | 7.5 ± 0.16 µM
11 | O=c1cc(OCCCCCCOc2ccc(-c3nc4ccccc4s3)cc2)c2ccccc2o1 [Compound 3k, 4-((6-(4-(Benzo[d]thiazol-2-yl)phenoxy)hexyl)oxy)-2H-chromen-2-one] | 35.8 ± 0.3 µM
12 | COc1cc(-c2nc3ccccc3s2)ccc1OCCCCCCOc1cc(=O)oc2ccccc12 [Compound 3l, 4-((6-(4-(Benzo[d]thiazol-2-yl)-2-methoxyphenoxy)hexyl)oxy)-2H-chromen-2-one] | 33.2 ± 0.28 µM
13 | CCOc1cc(-c2nc3ccccc3s2)ccc1OCCCCCCOc1cc(=O)oc2ccccc12 [Compound 3m, 4-((6-(4-(Benzo[d]thiazol-2-yl)-2-ethoxyphenoxy)hexyl)oxy)-2H-chromen-2-one] | 27.9 ± 0.2 µM
14 | COc1cc(-c2nc3ccccc3s2)cc(OC)c1OCCCCCCOc1cc(=O)oc2ccccc12 [Compound 3n, 4-((6-(4-(Benzo[d]thiazol-2-yl)-2,6-dimethoxyphenoxy)hexyl)oxy)-2H-chromen-2-one] | 12.1 ± 0.19 µM
15 | COc1cc(OCCCCCCOc2cc(=O)oc3ccccc23)ccc1-c1nc2ccccc2s1 [Compound 3o, 4-((6-(4-(Benzo[d]thiazol-2-yl)-3-methoxyphenoxy)hexyl)oxy)-2H-chromen-2-one] | 30.7 ± 0.23 µM
